Like-named read-outs stand apart in the source and are kept apart here.
Columns and labels:
Format in all cases: cell-based
HTT mRNA = assay: RT-qPCR splicing assay, HTT canonical (CJ) and alternative (AJ) junction mRNA; conditions: Homo sapiens; for IC50: read-out: HTT CJ IC50; for AC50: increase in alternative junction mRNA, read-out: HTT AJ AC50
Protocol: (§1) Compounds described herein were used to modulate RNA transcript abundance in cells. The expression of a target mRNA was measured by detecting the formation of an exon-exon junction in the canonical transcript (CJ). A compound mediated exon-inclusion event was detected by observing an increase in formation of a new junction with an alternative exon (AJ). Real-time qPCR assays were used to detect these splicing switches and interrogate the potency of various compounds towards different target genes. A high-throughput real time quantitative PCR (RT-qPCR) assay was developed to measure these two isoforms of the mRNA (CJ and AJ) for exemplary genes, such as HTT, SMN2, and MYB, together with a control housekeeping gene, GAPDH or GUSB or PPIA, used for normalization. Briefly, the A673 or K562 cell line was treated with various compounds described herein (e.g., compounds of Formula (I)). After treatment, the levels of the HTT, MYB, or SMN2 mRNA targets were determined from each sample of cell lysate by cDNA synthesis followed by qPCR.
(§2) • Cells-to-CT 1-step kit: ThermoFisher A25602, Cells-to-CT lysis reagent: ThermoFisher 4391851C, TaqMan™ Fast Virus 1-Step Master Mix: ThermoFisher 4444436 • GAPDH: VIC-PL, ThermoFisher 4326317E (Assay: Hs99999905_m1)—used for K562/suspension cell lines • GUSB: VIC-PL, ThermoFisher 4326320E (Assay: Hs99999908_m1)—used for K562/suspension cell lines • PPIA: VIC-PL, ThermoFisher 4326316E (Assay: Hs99999904_m1)—used for A673/adherent cell lines
(§3) The A673 cell line was cultured in DMEM with 10% FBS. Cells were diluted with full growth media and plated in a 96-well plate (15,000 cells in 100 ul media per well). The plate was incubated at 37° C. with 5% CO2 for 24 hours to allow cells to adhere. An 11-point 3-fold serial dilution of the compounds was made in DMSO then diluted in media in an intermediate plate. Compounds were transferred from the intermediate plate to the cell plate with the top dose at a final concentration of 10 uM in the well. Final DMSO concentration was kept at or below 0.25%. The cell plate was returned to the incubator at 37° C. with 5% CO2 for an additional 24 hours.
(§4) The K562 cell line was cultured in IMDM with 10% FBS. For K562, cells were diluted with full growth media and plated in either a 96-well plate (50,000 cells in 50 uL media per well) or a 384-well plate (8,000-40,000 cells in 45 uL media per well). An 11-point 3-fold serial dilution of the compounds were made in DMSO then diluted in media in an intermediate plate. Compound was transferred from the intermediate plate to the cell plate with the top dose at a final concentration of 10 uM in the well. Final DMSO concentration was kept at or below 0.25%. Final volume was 100 uL for 96-well plate and 50 uL for 384-well plate. The cell plate was then placed in an incubator at 37° C. with 5% CO2 for 24 hours.
(§5) The cells were then gently washed with 50 uL-100 uL cold PBS before proceeding to addition of lysis buffer. 30 uL-50 μL of room temperature lysis buffer with DNAse I (and optionally RNAsin) was added to each well. Cells were shaken/mixed thoroughly at room temperature for 5-10 minutes for lysis to take place and then 3 uL-5 μL of room temperature stop solution was added and wells were shaken/mixed again. After 2-5 minutes, the cell lysate plate was transferred to ice for RT-qPCR reaction setup. The lysates could also be frozen at −80° C. for later use.
(§6) In some cases, a direct lysis buffer was used. An appropriate volume of 3× lysis buffer (10 mM Tris, 150 mM NaCl, 1.5%-2.5% Igepal and 0.1-1 U/uL RNAsin, pH 7.4) was directly added to either K562 or A673 cells in media and mixed by pipetting 3 times. The plates were then incubated at room temperature with shaking/rocking for 20-50 minutes to allow for lysis to take place. After this time, the cell lysate plate was transferred to ice to set up for the RT-qPCR reactions. The lysates could also be frozen at −80° C. for later use. […]

MYB mRNA = assay: RT-qPCR splicing assay, MYB canonical (CJ) and alternative (AJ) junction mRNA; conditions: Homo sapiens; for IC50: read-out: MYB CJ IC50; for AC50: increase in alternative junction mRNA, read-out: MYB AJ AC50
Protocol: as §1, §2, §3, §4, §5, §6

Target C = assay: RT-qPCR splicing assay, gene panel, Target C canonical junction (CJ) mRNA; conditions: Homo sapiens; decrease in CJ mRNA levels; larger panel of genes; Table 3; read-out: Target C CJ IC50
Protocol: as §1, §3, §4, §5
(§7) In some cases, a direct lysis buffer was used. An appropriate volume of 3× lysis buffer (10 mM Tris, 150 mM NaCl, 1.5%-2.5% Igepal and 0.1-1 U/uL RNAsin, pH 7.4) was directly added to either K562 or A673 cells in media and mixed by pipetting 3 times. The plates were then incubated at room temperature with shaking/rocking for 20-50 minutes to allow for lysis to take place. After this time, the cell lysate plate was transferred to ice to set up for the RT-qPCR reactions. The lysates could also be frozen at −80° C. for later use.
(§8) To set up 10 uL RT-qPCR reactions, cell lysates were transferred to 384-well qPCR plates containing the master mix according to the table below. The plates were sealed, gently vortexed, and spun down before the run. The volumes were adjusted accordingly in some instances where the reaction was carried in 20 μL. The table below summarizes the components of the RT-qPCR reactions:
(§9) The RT-qPCR reaction was performed using a QuantStudio (ThermoFisher) under the following fast cycling conditions. […]

SMN2 mRNA = assay: RT-qPCR splicing assay, gene panel, SMN2 canonical junction (CJ) mRNA; conditions: Homo sapiens; decrease in CJ mRNA levels; larger panel of genes; Table 3; read-out: SMN2 CJ IC50
Protocol: as §1, §3, §4, §5, §7, §8, §9

K562 cells = assay: Cell Titer Glo 2.0 cell viability assay; conditions: Homo sapiens, 500 cells/well, 72 hours
Protocol: Compounds described herein were screened for toxicity in K562 (human chronic myelogenous leukemia) and SH-SY5Y (human neuroblastoma) cells using a Cell Titer Glo 2.0 assay. • Promega CellTiter-Glo® 2.0 Cell Viability Assay (cat #G9241) • Corning 384-well TC-treated microplates (cat #3570) Cells were plated at 500 cells/well (K562 cells) in 45 μL of IMDM supplemented with 10% FBS in a 384-well opaque plate. Wells containing only medium were used as a blank control. Test compounds (e.g., compounds of Formula (I), (II), or (III)) were first serially diluted in DMSO then diluted 1:100 with IMDM+10% FBS. The final concentration of DMSO was 0.1% in each well. The cells were incubated for 72 hours at 37° C. and 5% CO2 before assaying with Cell Titer Glo 2.0 reagent.

[1] = decrease in CJ mRNA levels, larger panel of genes, Table 3
[2] = decrease in canonical junction mRNA, A673 or K562 cells, 24 hours treatment, Table 2
[3] = A673 or K562 cells, 24 hours treatment, Table 2

Cc1cn2nc(-c3cc(F)c4nn(C5CCNC6(CC6)C5)cc4c3)cc2c(C)n1 (stereo not drawn) [Compound 204, 2-[2-(4-azaspiro[2.5]octan-7-yl)-7-fluoro-indazol-5-yl]-4,6-dimethyl-pyrazolo[1,5-a]pyrazine]
IC50 (HTT mRNA; [1]): 100 to 1000 nM | IC50 (HTT mRNA; [2]): 100 to 1000 nM | AC50 (HTT mRNA; [3]): 100 to 1000 nM | IC50 (MYB mRNA; [1]): 1000 to 10000 nM | IC50 (MYB mRNA; [2]): 1000 to 10000 nM | AC50 (MYB mRNA; [3]): 1000 to 10000 nM | IC50 (Target C): 100 to 1000 nM | IC50 (SMN2 mRNA): 100 to 1000 nM | GI50 (K562 cells): 1000 to 10000 nM

Cc1cn2nc(-c3cc(C)c4nn(C5CCNC6(CC6)C5)cc4n3)cc(C)c2n1 (stereo not drawn) [Compound 208, 2-(4-azaspiro[2.5]octan-7-yl)-5-(2,8-dimethylimidazo[1,2-b]pyridazin-6-yl)-7-methyl-pyrazolo[4,3-b]pyridine]
IC50 (HTT mRNA; [1]): > 10000 nM | IC50 (HTT mRNA; [2]): > 10000 nM | AC50 (HTT mRNA; [3]): > 10000 nM | IC50 (MYB mRNA; [1]): > 10000 nM | IC50 (MYB mRNA; [2]): > 10000 nM | AC50 (MYB mRNA; [3]): > 10000 nM | IC50 (Target C): > 10000 nM | IC50 (SMN2 mRNA): 1000 to 10000 nM

Cc1cn2nc(-c3cc(F)c4nn([C@H]5CCN(C)C6(CC6)C5)cc4c3)cc(C)c2n1 [Compound 175, 6-[7-fluoro-2-[(7S)-4-methyl-4-azaspiro[2.5]octan-7-yl]indazol-5-yl]-2,8-dimethyl-imidazo[1,2-b]pyridazine]
IC50 (HTT mRNA; [1]): < 100 nM | IC50 (HTT mRNA; [2]): < 100 nM | AC50 (HTT mRNA; [3]): < 100 nM | IC50 (MYB mRNA; [1]): 100 to 1000 nM | IC50 (MYB mRNA; [2]): 100 to 1000 nM | AC50 (MYB mRNA; [3]): < 100 nM | IC50 (Target C): < 100 nM | GI50 (K562 cells): 100 to 1000 nM

CCN1CCC(n2cc3cc(-c4cc(C)c5nc(C)cn5n4)cc(F)c3n2)CC12CCC2 (stereo not drawn) [Compound 198, 6-[2-(5-ethyl-5-azaspiro[3.5]nonan-8-yl)-7-fluoro-indazol-5-yl]-2,8-dimethyl-imidazo[1,2-b]pyridazine]
IC50 (HTT mRNA; [1]): < 100 nM | IC50 (HTT mRNA; [2]): < 100 nM | AC50 (HTT mRNA; [3]): < 100 nM | IC50 (MYB mRNA; [1]): 100 to 1000 nM | IC50 (MYB mRNA; [2]): 100 to 1000 nM | AC50 (MYB mRNA; [3]): 100 to 1000 nM | IC50 (Target C): < 100 nM | IC50 (SMN2 mRNA): < 100 nM | GI50 (K562 cells): 100 to 1000 nM

Cc1cn2nc(-c3ccc4nn(C5CCNC6(CC6)C5)cc4n3)cc(C)c2n1 (stereo not drawn) [Compound 201, 6-[2-(4-azaspiro[2.5]octan-7-yl)pyrazolo[4,3-b]pyridine-5-yl]-2,8-dimethyl-imidazo[1,2-b]pyridazine]
IC50 (HTT mRNA; [1]): 100 to 1000 nM | IC50 (HTT mRNA; [2]): 100 to 1000 nM | AC50 (HTT mRNA; [3]): 1000 to 10000 nM | IC50 (MYB mRNA; [1]): 1000 to 10000 nM | IC50 (MYB mRNA; [2]): 1000 to 10000 nM | AC50 (MYB mRNA; [3]): 1000 to 10000 nM | IC50 (Target C): 1000 to 10000 nM | IC50 (SMN2 mRNA): 100 to 1000 nM | GI50 (K562 cells): 1000 to 10000 nM

Cc1cn2nc(-c3cc(F)c4nn(C5CCN(C(C)(C)C)CC5)cc4c3)cc(C)c2n1 [Compound 207, 2-(1-tert-butylpiperidin-4-yl)-5-{2,8-dimethylimidazo[1,2-b]pyridazin-6-yl}-7-fluoroindazole]
IC50 (HTT mRNA; [1]): 100 to 1000 nM | IC50 (HTT mRNA; [2]): 100 to 1000 nM | AC50 (HTT mRNA; [3]): 100 to 1000 nM | IC50 (MYB mRNA; [1]): 100 to 1000 nM | IC50 (MYB mRNA; [2]): 100 to 1000 nM | AC50 (MYB mRNA; [3]): 100 to 1000 nM | IC50 (Target C): 1000 to 10000 nM | IC50 (SMN2 mRNA): < 100 nM

Cc1cn2nc(-c3nc4cn(C5CCNCC5)nc4c(=O)[nH]3)cc(C)c2n1 [Compound 211, 5-(2,8-dimethylimidazo[1,2-b]pyridazin-6-yl)-2-(4-piperidyl)-6H-pyrazolo[4,3-d]pyrimidin-7-one]
IC50 (HTT mRNA; [1]): < 100 nM | IC50 (HTT mRNA; [2]): < 100 nM | AC50 (HTT mRNA; [3]): 100 to 1000 nM | IC50 (MYB mRNA; [1]): 100 to 1000 nM | IC50 (MYB mRNA; [2]): 100 to 1000 nM | AC50 (MYB mRNA; [3]): 100 to 1000 nM | IC50 (SMN2 mRNA): < 100 nM

Cc1cn2nc(-c3cc(F)c4nn([C@@H]5CCN(C)C6(CC6)C5)cc4c3)cc(C)c2n1 [Compound 176, 6-[7-fluoro-2-[(7R)-4-methyl-4-azaspiro[2.5]octan-7-yl]indazol-5-yl]-2,8-dimethyl-imidazo[1,2-b]pyridazine]
IC50 (HTT mRNA; [1]): < 100 nM | IC50 (HTT mRNA; [2]): < 100 nM | AC50 (HTT mRNA; [3]): < 100 nM | IC50 (MYB mRNA; [1]): 100 to 1000 nM | IC50 (MYB mRNA; [2]): 100 to 1000 nM | AC50 (MYB mRNA; [3]): 1000 to 10000 nM | IC50 (Target C): 100 to 1000 nM | GI50 (K562 cells): 100 to 1000 nM
